Columns and labels:
[1] = Metabolic stability in mouse liver microsomes assessed as intrinsic clearance at 0.5 uM incubated upto 40 mins by LCMS analysis; format: ADME, Microsome; details: read-out: CLH
[2] = molecular target: T1, Kinesin-like protein KIF18A (Homo sapiens, UniProt Q8NI77); assay: Inhibition of recombinant His-tagged human KIF18A (1 to 467 residues) expressed in Trichoplusia ni insect cells assessed as inhibition of microtubule-stimulated ATPase activity preincubated for 30 mins followed by ATP addition and further incubated for 15 mins by ADP-Glo reagent based assay; set-up: species or system Insect cell
T1 sequence (Q8NI77 whole entry): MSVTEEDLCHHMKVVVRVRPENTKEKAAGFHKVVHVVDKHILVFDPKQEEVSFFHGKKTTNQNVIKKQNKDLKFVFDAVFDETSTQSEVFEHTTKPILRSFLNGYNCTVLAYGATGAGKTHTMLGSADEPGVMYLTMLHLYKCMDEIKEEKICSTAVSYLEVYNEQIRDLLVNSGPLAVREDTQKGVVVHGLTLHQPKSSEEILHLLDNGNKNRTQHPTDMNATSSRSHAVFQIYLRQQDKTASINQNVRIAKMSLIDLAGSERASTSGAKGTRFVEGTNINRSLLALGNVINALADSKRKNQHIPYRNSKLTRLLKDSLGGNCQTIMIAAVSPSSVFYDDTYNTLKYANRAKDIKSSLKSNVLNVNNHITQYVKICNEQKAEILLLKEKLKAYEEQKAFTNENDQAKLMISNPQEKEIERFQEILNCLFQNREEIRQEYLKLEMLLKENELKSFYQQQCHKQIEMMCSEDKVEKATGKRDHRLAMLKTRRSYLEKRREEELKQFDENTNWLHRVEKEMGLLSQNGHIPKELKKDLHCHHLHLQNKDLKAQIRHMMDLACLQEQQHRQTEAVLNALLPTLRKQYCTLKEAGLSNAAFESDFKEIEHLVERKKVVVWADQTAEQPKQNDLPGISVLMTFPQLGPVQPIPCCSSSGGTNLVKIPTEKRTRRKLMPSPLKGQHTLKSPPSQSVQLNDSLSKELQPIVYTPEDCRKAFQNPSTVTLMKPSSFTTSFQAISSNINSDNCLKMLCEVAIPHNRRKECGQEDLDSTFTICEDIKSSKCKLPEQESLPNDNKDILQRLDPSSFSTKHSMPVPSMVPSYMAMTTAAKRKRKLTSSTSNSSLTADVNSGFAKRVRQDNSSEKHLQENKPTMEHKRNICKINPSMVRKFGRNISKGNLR

OVCAR-3 [3] = assay: Antiproliferative activity against human OVCAR-3 cells by nuclear count assay; format: functional, cell-based
[4] = Metabolic stability in human liver microsomes assessed as intrinsic clearance at 0.5 uM incubated upto 40 mins by LCMS analysis; format: ADME, Microsome; details: read-out: CLH
OVCAR-3 [5] = assay: Induction of mitotic arrest in human OVCAR-3 cells assessed as p-histone H3 incubated for 24 hrs by mitotic - imaging assay; format: functional, cell-based; details: OVCAR-3, 24 h
[6] = Clearance in CD-1 mouse at 1 mg/kg, iv and 10 mg/kg, po; format: ADME, organism-based; details: in vivo
[7] = Volume of distribution at steady state in CD-1 mouse at 1 mg/kg, iv and 10 mg/kg, po; format: ADME, organism-based; details: in vivo
[8] = Half life in CD-1 mouse at 1 mg/kg, iv and 10 mg/kg, po; format: ADME, organism-based; details: in vivo
[9] = Oral bioavailability in CD-1 mouse at 10 mg/kg; format: ADME, organism-based; details: in vivo
[10] = Unbound fraction in plasma (unknown origin) by ultracentrifugation; format: ADME, cell-free
[11] = Cmax in CD-1 mouse at 1 mg/kg, iv and 10 mg/kg, po; format: ADME, organism-based; set-up: dose 10 mg/kg, route po; details: in vivo
MDA-MB-157 = assay: Induction of mitotic arrest in TP53 mutant human MDA-MB-157 cells assessed as multipolar spindle arrays by measuring pericentriolar material incubated for 24 hrs by mitotic index assay; format: functional, cell-based; details: MDA-MB-157, 24 h
[12] = molecular target: T2, Kinesin-like protein KIF11 (Homo sapiens, UniProt P52732); assay: Inhibition of recombinant GST-tagged human Eg5 assessed as inhibition of microtubule-stimulated ATPase activity preincubated for 30 mins followed by ATP addition and further incubated for 15 mins by ADP-Glo reagent based assay
T2 sequence (P52732 whole entry): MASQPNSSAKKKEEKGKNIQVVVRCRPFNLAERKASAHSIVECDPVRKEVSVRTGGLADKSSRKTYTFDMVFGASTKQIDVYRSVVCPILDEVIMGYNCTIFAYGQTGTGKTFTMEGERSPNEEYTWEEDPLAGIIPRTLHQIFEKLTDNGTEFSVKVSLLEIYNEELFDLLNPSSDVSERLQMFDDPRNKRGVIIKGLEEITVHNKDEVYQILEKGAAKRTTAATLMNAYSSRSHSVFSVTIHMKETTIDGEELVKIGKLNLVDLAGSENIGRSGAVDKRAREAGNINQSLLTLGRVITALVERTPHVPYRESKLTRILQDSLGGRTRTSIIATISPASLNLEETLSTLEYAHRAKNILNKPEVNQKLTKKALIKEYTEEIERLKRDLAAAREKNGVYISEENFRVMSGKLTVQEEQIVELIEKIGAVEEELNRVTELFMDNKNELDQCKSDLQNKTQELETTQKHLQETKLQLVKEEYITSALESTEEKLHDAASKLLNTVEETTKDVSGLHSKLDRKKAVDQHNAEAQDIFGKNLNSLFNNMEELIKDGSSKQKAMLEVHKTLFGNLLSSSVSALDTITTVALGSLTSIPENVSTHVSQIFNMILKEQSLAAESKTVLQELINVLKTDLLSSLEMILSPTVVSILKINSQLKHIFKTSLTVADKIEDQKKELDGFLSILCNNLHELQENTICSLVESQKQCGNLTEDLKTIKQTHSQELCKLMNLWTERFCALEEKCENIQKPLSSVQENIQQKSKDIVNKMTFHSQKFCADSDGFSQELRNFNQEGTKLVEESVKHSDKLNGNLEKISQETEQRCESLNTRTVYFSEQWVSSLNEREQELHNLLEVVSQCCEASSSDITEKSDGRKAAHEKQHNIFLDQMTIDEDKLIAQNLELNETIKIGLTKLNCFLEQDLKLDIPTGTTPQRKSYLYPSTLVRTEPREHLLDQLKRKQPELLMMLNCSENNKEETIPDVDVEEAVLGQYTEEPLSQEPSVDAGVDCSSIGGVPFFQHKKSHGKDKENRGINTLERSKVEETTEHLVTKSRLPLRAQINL

[13] = molecular target: Centromere-associated protein E (Homo sapiens, UniProt Q02224); assay: Inhibition of recombinant GST-tagged human CENP-E assessed as inhibition of microtubule-stimulated ATPase activity preincubated for 30 mins followed by ATP addition and further incubated for 15 mins by ADP-Glo reagent based assay
[14] = Cmax in CD-1 mouse xenografted with human OVCAR-3 cells at 100 mg/kg, ip by LC-MS/MS analysis; format: ADME, organism-based; set-up: dose 100 mg/kg, route ip; details: in vivo
[15] = Plasma concentration in CD-1 mouse xenografted with human OVCAR-3 cells at 100 mg/kg, ip measured upto 24 hrs by LC-MS/MS analysis; format: ADME, organism-based
[16] = AUC (0 to 24 hrs) in CD-1 mouse xenografted with human OVCAR-3 cells at 100 mg/kg, ip by LC-MS/MS analysis; format: ADME, organism-based; set-up: dose 100 mg/kg, route ip; details: in vivo
[17] = Unbound fraction in CD-1 mouse plasma xenografted with human OVCAR-3 cells at 100 mg/kg, ip by LC-MS/MS analysis; format: ADME, organism-based

Chain of Centromere-associated protein E (Q02224 whole entry): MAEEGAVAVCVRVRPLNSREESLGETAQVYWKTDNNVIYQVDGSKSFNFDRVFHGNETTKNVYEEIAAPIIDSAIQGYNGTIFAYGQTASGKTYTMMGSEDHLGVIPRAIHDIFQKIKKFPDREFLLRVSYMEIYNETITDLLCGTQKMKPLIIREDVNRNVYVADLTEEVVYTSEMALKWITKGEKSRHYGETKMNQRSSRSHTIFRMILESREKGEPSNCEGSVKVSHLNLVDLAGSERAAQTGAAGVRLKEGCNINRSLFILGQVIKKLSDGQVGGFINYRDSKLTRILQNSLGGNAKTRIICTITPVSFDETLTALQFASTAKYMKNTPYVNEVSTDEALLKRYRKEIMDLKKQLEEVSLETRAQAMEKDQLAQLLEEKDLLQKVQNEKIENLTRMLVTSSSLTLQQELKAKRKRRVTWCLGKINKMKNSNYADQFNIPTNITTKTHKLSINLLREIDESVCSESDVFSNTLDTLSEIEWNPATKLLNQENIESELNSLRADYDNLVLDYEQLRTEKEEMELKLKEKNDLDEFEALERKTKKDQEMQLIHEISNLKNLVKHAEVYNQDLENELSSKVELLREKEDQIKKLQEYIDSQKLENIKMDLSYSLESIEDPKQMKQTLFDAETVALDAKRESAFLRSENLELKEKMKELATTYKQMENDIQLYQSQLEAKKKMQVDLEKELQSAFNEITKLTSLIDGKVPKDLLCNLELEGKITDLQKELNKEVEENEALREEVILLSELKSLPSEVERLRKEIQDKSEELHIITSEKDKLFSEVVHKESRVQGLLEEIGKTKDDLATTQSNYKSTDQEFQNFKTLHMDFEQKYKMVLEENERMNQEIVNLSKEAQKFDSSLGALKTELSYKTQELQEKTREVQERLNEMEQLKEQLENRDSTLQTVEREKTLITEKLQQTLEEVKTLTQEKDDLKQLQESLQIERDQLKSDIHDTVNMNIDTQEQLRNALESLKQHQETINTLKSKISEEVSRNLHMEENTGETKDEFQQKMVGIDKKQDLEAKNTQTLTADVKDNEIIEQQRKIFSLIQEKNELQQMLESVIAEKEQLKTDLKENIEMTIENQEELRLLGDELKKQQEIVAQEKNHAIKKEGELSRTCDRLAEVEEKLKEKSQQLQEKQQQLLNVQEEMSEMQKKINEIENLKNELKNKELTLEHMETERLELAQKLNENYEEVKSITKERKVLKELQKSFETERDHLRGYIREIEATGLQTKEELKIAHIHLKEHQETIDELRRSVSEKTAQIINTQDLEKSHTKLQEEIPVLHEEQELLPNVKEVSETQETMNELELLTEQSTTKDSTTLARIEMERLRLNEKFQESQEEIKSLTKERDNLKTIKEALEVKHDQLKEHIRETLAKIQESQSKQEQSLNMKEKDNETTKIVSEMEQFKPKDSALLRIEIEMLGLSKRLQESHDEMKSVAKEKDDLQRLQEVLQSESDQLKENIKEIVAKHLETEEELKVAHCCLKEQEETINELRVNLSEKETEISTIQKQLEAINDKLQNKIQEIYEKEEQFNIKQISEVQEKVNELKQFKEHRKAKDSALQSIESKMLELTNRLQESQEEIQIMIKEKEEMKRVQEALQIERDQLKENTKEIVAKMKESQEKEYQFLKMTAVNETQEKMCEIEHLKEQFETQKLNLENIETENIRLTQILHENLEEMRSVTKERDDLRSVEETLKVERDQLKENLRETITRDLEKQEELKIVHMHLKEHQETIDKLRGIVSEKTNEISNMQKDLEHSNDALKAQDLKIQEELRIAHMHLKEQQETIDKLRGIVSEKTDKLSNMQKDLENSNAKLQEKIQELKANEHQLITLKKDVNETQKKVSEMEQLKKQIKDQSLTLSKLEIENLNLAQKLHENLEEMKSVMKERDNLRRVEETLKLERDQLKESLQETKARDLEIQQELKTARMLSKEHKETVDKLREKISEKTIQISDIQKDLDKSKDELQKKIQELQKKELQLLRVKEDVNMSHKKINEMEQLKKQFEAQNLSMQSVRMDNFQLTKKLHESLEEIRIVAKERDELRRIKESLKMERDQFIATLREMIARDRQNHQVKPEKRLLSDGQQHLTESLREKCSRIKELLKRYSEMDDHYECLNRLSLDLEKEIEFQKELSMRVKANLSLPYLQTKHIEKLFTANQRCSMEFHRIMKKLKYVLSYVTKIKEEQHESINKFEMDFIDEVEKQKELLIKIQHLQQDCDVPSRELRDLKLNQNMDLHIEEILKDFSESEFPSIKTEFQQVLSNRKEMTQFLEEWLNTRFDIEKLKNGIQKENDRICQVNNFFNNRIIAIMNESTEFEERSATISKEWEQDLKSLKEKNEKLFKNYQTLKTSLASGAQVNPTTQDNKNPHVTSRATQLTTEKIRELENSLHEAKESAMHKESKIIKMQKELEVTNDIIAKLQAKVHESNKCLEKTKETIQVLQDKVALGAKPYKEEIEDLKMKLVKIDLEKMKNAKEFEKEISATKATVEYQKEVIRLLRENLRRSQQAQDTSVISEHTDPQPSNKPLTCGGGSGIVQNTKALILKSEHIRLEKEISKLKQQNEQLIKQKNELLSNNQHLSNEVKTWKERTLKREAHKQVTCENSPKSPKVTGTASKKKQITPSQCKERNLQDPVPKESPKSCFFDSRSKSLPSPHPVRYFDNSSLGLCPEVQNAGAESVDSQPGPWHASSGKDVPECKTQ

Structure (SMILES)	microsomal CLint at 0.5 µM [1] [µL/min/mg]	IC50 [2] [µM]	EC50 (OVCAR-3 [3]) [µM]	microsomal CLint at 0.5 µM [4] [µL/min/mg]	EC50 (OVCAR-3 [5]) [µM]	further results
CC(C)(C)NS(=O)(=O)c1cccc(NC(=O)c2ccc(NC(C)(C)CO)nc2N2CCC3(CC2)CC3)n1	> 399	0.081	0.042	> 399	0.043	
CC(C)(C)NS(=O)(=O)c1cccc(NC(=O)c2ncc(NC(C)(C)CO)nc2N2CCC3(CC2)CC3)c1	76	0.135	0.11	74	0.19	CL [6]: 0.3 L/h/kg; Vdss [7]: 0.7 L/kg; half-life [8]: 3.6 h; bioavailability [9]: 13%; fraction unbound [10]: 0.019; Cmax [11]: 2.43 µM
O=C(Nc1cccc(S(=O)(=O)N2CCCCC2)c1)c1cn[nH]c1-c1ccc(Cl)cc1	> 399	0.52		255		IC50 (MDA-MB-157): 8.8 µM; IC50 [12]: > 100 µM; IC50 [13]: > 100 µM
COc1ccc(C(=O)Nc2cccc(S(=O)(=O)C3CCCC3)n2)c(N2CCC3(CC2)CC3)c1	> 399	0.36	2.35	> 399	2.66	
CN(CCO)c1ccc(C(=O)Nc2cccc(S(=O)(=O)C3CCCC3)n2)c(N2CCC3(CC2)CC3)c1	> 399	0.253	0.358	> 399	0.449	
CC(C)(O)CNc1ccc(C(=O)Nc2cccc(S(=O)(=O)C3CCCC3)n2)c(N2CCC3(CC2)CC3)c1	> 399	0.165	0.229	> 399	0.228	
CC(C)(C)NS(=O)(=O)c1cccc(NC(=O)c2ccc(NC3(CO)CC3)cc2N2CCC3(CC2)CC3)n1	58	0.166	0.062	83	0.075	CL [6]: 0.3 L/h/kg; Vdss [7]: 0.3 L/kg; half-life [8]: 1.5 h; bioavailability [9]: 22%; fraction unbound [10]: 0.011; Cmax [11]: 5.45 µM
CC(C)(CO)S(=O)(=O)c1cccc(NC(=O)c2cccnc2N2CCC3(CC2)CC3)c1	> 399	31.6	31.2	154	45.9	
O=C(Nc1cccc(S(=O)(=O)C2CCCC2)c1)c1cccnc1N1CCC(F)(F)CC1	> 399	5.31	4.78	> 399	4.63	
CC(C)(C)NS(=O)(=O)c1cccc(NC(=O)c2ccc(NS(=O)(=O)C3(C)CC3)cc2N2CCC3(CC2)CC3)c1	90		0.011	90	0.011	Cmax [14]: 26.5 µM; concentration at 24 h [15]: 0.8 µM; AUC(0-t) [16]: 269 µM·h; fraction unbound [17]: 0.015
O=C(Nc1cccc(S(=O)(=O)C2CCCC2)n1)c1ccc(NCCO)cc1N1CCC2(CC1)CC2	> 399	0.092	0.117	> 399	0.177	
O=C(Nc1cccc(S(=O)(=O)C2CCCC2)c1)c1cccnc1N1CCCCC1	> 399	6.16	5.03	> 399	6.35	IC50 (MDA-MB-157): 4.8 µM; IC50 [12]: > 100 µM; IC50 [13]: > 100 µM
CC(C)(C)NS(=O)(=O)c1cccc(NC(=O)c2cccnc2N2CCC3(CC2)CC3)c1	> 399	0.32	0.84	> 399	1.03	
CC1(C)CCN(c2ncccc2C(=O)Nc2cccc(S(=O)(=O)C3CCCC3)c2)CC1	> 399	1.25	2.14	> 399	2.72	
O=C(Nc1cccc(S(=O)(=O)C2COC2)c1)c1cccnc1N1CCC2(CC1)CC2	385	8.88	12.6	183	14.8	
O=C(Nc1cccc(S(=O)(=O)NC2CC2)c1)c1cccnc1N1CCC2(CC1)CC2	> 399	0.58	1.79	> 399	2.26	
O=[N+]([O-])c1cc(Cl)ccc1S(=O)(=O)c1ccccc1		1.7				
O=C(Nc1cccc(S(=O)(=O)N2CCCC2)c1)c1cccnc1N1CCC2(CC1)CC2	> 399	1.83	4.42	> 399	5.46	
O=C(Nc1cccc(C2(C(F)(F)F)N=N2)c1)c1ccc(NS(=O)(=O)CCO)nc1N1CCC2(CC1)CC2		0.032				
CC(C)(C)NS(=O)(=O)c1cccc(NC(=O)c2ccc(NC(C)(C)CO)cc2N2CCC3(CC2)CC3)n1	> 399	0.14	0.023	189	0.028	
CC(C)(CO)Nc1ccc(C(=O)Nc2cccc(S(=O)(=O)NC3CCCC3)n2)c(N2CCC3(CC2)CC3)c1	> 399	0.08	0.032	> 399	0.048	
CC(C)S(=O)(=O)c1cccc(NC(=O)c2cccnc2N2CCC3(CC2)CC3)c1	> 399	3.15	4.48	375	4.29	

— ChEMBL document CHEMBL5223091, “Targeting the Mitotic Kinesin KIF18A in Chromosomally Unstable Cancers: Hit Optimization Toward an In Vivo Chemical Probe” (J Med Chem, 2022)
